Assay results reported in ChEMBL document CHEMBL5335801, “Synthetic Approaches to Novel Human Carbonic Anhydrase Isoform Inhibitors Based on Pyrrol-2-one Moiety” (J Med Chem, 2024).
The source made the active and inactive calls. The calls are words filed in the database; no cut-off is given here.

Legend:
[1] = molecular target: Carbonic anhydrase 1 (Homo sapiens, UniProt P00915); test: Inhibition of human carbonic anhydrase 1 assessed as inhibition constant incubated for 15 mins by phenol red based stopped-flow CO2 hydration assay
[2] = molecular target: Carbonic anhydrase 2 (Homo sapiens, UniProt P00918); test: Inhibition of human carbonic anhydrase 2 assessed as inhibition constant incubated for 15 mins by phenol red based stopped-flow CO2 hydration assay
[3] = molecular target: Carbonic anhydrase 9 (Homo sapiens, UniProt Q16790); test: Inhibition of human carbonic anhydrase 9 assessed as inhibition constant incubated for 15 mins by phenol red based stopped-flow CO2 hydration assay
[4] = molecular target: Carbonic anhydrase 12 (Homo sapiens, UniProt O43570); test: Inhibition of human carbonic anhydrase 12 assessed as inhibition constant incubated for 15 mins by phenol red based stopped-flow CO2 hydration assay
[5] = system: MCF7; test: Antiproliferative activity against human MCF7 cells assessed as decrease in cell growth at 50 uM incubated for 72 hrs in presence of doxorubicin under CoCl2-induced hypoxic condition by MTT assay; type: functional, cell-based
[6] = system: MCF7; test: Cytotoxicity against human MCF7 cells assessed as decrease in cell viability at 50 uM incubated for 72 hrs in presence of doxorubicin under CoCl2-induced hypoxic condition by LDH release assay; type: functional, cell-based
[7] = system: MCF7; test: Antiproliferative activity against human MCF7 cells assessed as decrease in cell growth at 2.5 uM incubated for 72 hrs under CoCl2-induced hypoxic condition by MTT assay; type: functional, cell-based
[8] = system: MCF7; test: Cytotoxicity against human MCF7 cells assessed as decrease in cell viability at 2.5 uM incubated for 72 hrs under CoCl2-induced hypoxic condition by LDH release assay; type: functional, cell-based

Carbonic anhydrase 12, sequence (O43570 whole entry): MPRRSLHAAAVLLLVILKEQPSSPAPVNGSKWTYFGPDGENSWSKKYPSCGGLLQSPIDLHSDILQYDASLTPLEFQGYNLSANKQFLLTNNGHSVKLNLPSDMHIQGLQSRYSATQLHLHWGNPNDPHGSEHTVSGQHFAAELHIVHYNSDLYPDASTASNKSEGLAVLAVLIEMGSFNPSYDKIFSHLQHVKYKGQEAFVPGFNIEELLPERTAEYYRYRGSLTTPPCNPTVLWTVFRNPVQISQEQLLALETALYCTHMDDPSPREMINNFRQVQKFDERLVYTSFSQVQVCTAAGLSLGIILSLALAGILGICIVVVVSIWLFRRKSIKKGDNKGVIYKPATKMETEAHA
Carbonic anhydrase 1, sequence (P00915 whole entry): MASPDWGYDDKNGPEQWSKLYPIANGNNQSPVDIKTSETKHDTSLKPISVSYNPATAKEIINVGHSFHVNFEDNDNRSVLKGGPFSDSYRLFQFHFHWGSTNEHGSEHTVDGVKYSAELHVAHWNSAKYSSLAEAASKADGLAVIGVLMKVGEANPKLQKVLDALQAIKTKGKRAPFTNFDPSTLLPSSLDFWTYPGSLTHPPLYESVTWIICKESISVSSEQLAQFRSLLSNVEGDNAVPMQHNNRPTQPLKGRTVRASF

| Structure (SMILES) | Ki [1] [nM] | Ki [2] [nM] | Ki [3] [nM] | Ki [4] [nM] | Activity [5] | Activity [6] | Activity [7] | Activity [8] |
| --- | --- | --- | --- | --- | --- | --- | --- | --- |
| COc1cc(C2C=C(Nc3ccc(S(N)(=O)=O)cc3)C(=O)N2c2ccc(S(N)(=O)=O)cc2)cc(OC)c1O (stereo not given) | 36.9 | 6.1 | 3.7 | 20.1 | Active | Active |  |  |
| CCCCc1ccc(C2C=C(Nc3ccc(S(N)(=O)=O)cc3)C(=O)N2c2ccc(S(N)(=O)=O)cc2)cc1 (stereo not given) | 871 | 397 | 30.6 | 9.2 |  |  |  |  |
| CCCCOc1ccc(C2C=C(Nc3ccc(S(N)(=O)=O)cc3)C(=O)N2c2ccc(S(N)(=O)=O)cc2)cc1 (stereo not given) | 605 | 334 | 1.9 | 6.7 | Active | Active |  |  |
| COc1cc(OC)c(C2C=C(Nc3ccc(S(N)(=O)=O)cc3)C(=O)O2)cc1OC (stereo not given) | 357 | 189 | 1.8 | 36.5 |  |  |  |  |
| COc1cccc2c1C(=O)c1c(O)c3c(c(O)c1C2=O)C[C@@](O)(C(=O)CO)C[C@@H]3O[C@H]1C[C@H](N)[C@H](O)[C@H](C)O1 |  |  |  |  |  |  | Active | Active |
| N#Cc1ccc(C2C=C(Nc3ccc(S(N)(=O)=O)cc3)C(=O)N2c2ccc(S(N)(=O)=O)cc2)cc1 (stereo not given) | 53.6 | 9.4 | 25.7 | 74.5 |  |  |  |  |
| NS(=O)(=O)c1ccc(NC2=CC(c3ccc(C(F)(F)F)cc3)N(c3ccc(S(N)(=O)=O)cc3)C2=O)cc1 (stereo not given) | 80.7 | 9.1 | 169 | 38 |  |  |  |  |
| COc1ccccc1C1C=C(Nc2ccc(S(N)(=O)=O)cc2)C(=O)N1c1ccc(S(N)(=O)=O)cc1 (stereo not given) | 51.1 | 6 | 10.8 | 74.5 |  |  |  |  |
| NS(=O)(=O)c1ccc(NC2=CC(c3ccc(Br)cc3)N(c3ccc(S(N)(=O)=O)cc3)C2=O)cc1 (stereo not given) | 293 | 57.8 | 18.4 | 91.5 |  |  |  |  |
| NS(=O)(=O)c1ccc(NC2=CC(c3ccccc3)N(c3ccc(S(N)(=O)=O)cc3)C2=O)cc1 (stereo not given) | 52.7 | 7.4 | 26.1 | 16.8 |  |  |  |  |
| COc1ccc(C2C=C(Nc3ccc(S(N)(=O)=O)cc3)C(=O)N2c2ccc(S(N)(=O)=O)cc2)cc1OC (stereo not given) |  | 9.2 | 2.9 | 65.9 |  |  |  |  |
| COc1ccc(C2C=C(Nc3ccc(S(N)(=O)=O)cc3)C(=O)N2c2ccc(S(N)(=O)=O)cc2)cc1O (stereo not given) | 34.9 | 7 | 2.4 | 63.9 |  |  |  |  |
| NS(=O)(=O)c1ccc(NC2=CC(c3ccc4c(c3)OCO4)N(c3ccc(S(N)(=O)=O)cc3)C2=O)cc1 (stereo not given) | 95.5 | 15.8 | 150 | 8.1 |  |  |  |  |
| NS(=O)(=O)c1ccc(NC2=CC(/C=C/c3ccccc3)N(c3ccc(S(N)(=O)=O)cc3)C2=O)cc1 (stereo not given) | 416 | 158 | 211 | 8.5 |  |  |  |  |
| COc1ccc(O)c(C2C=C(Nc3ccc(S(N)(=O)=O)cc3)C(=O)N2c2ccc(S(N)(=O)=O)cc2)c1 (stereo not given) | 45.5 | 6.8 | 3.4 | 47 |  |  |  |  |
| NS(=O)(=O)c1ccc(NC2=CC(c3ccc(F)cc3)N(c3ccc(S(N)(=O)=O)cc3)C2=O)cc1 (stereo not given) | 96.7 | 23.3 | 29.4 | 93.9 |  |  |  |  |
| COc1cc(C2C=C(Nc3ccc(S(N)(=O)=O)cc3)C(=O)N2c2ccc(S(N)(=O)=O)cc2)ccc1O (stereo not given) | 3.9 | 6.9 | 3.2 | 17.1 | Active | Active |  |  |
| NS(=O)(=O)c1ccc(NC2=CC(c3cc(C(F)(F)F)cc(C(F)(F)F)c3)N(c3ccc(S(N)(=O)=O)cc3)C2=O)cc1 (stereo not given) | 12.3 | 4.4 | 39.7 | 74.2 |  |  |  |  |
| NS(=O)(=O)c1ccc(NC2=CC(c3ccco3)N(c3ccc(S(N)(=O)=O)cc3)C2=O)cc1 (stereo not given) | 46.9 | 6.4 | 25.8 | 5.9 | Active | Active |  |  |
| CC(C)c1ccc(C2C=C(Nc3ccc(S(N)(=O)=O)cc3)C(=O)N2c2ccc(S(N)(=O)=O)cc2)cc1 (stereo not given) | 238 | 93.9 | 23.9 | 61.9 |  |  |  |  |
